In patent publication US20120053053A1, “PYRIMIDINE DERIVATIVES AND THEIR USE AS HERBICIDES” (SYNGENTA CROP PROTECTION, LLC, priority 2009, published 2012):

Tests used:
Format in all cases: in vivo
[1] = system: Ipomea hederaceae (IPOHE); experiment: Post-emergence biological efficacy (percentage damage); details: Ipomoea hederacea, 312 h, dose 1,000 g/ha, evaluated after 13 days, 100=total damage, 0=no damage
Method in brief: (§1)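 Applied rates: 250 or 1000 g/ha, sprayed from acetone/water (50:50) with 0.5% Tween 20 onto plants 8 days after sowing. Visual damage rating 13 days later on a 0–100 scale.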

[2] = system: Alopecurus myosuroides (ALOMY); experiment: as above; details: Alopecurus myosuroides, 312 h, dose 1,000 g/ha, evaluated after 13 days, 100=total damage, 0=no damage
Method in brief: as §1

[3] = system: Echinochloa crus-galli (ECHCG); experiment: as above; details: Echinochloa crus-galli, 312 h, dose 1,000 g/ha, evaluated after 13 days, 100=total damage, 0=no damage
Method in brief: as §1

Setaria faberi (SETFA) [4] = experiment: as above; details: Setaria faberi, 312 h, dose 1,000 g/ha, evaluated after 13 days, 100=total damage, 0=no damage
Method in brief: as §1

Solanum nigrum (SOLNI) [5] = experiment: as above; details: Solanum nigrum, 312 h, dose 1,000 g/ha, evaluated after 13 days, 100=total damage, 0=no damage
Method in brief: as §1

[6] = system: Amaranthus retoflexus (AMARE); experiment: as above; details: Amaranthus retroflexus, 312 h, dose 1,000 g/ha, evaluated after 13 days, 100=total damage, 0=no damage
Method in brief: as §1

[7] = system: Ipomea hederaceae (IPOHE); experiment: Pre-emergence biological efficacy (percentage damage); details: Ipomoea hederacea, 312 h, dose 1,000 g/ha, evaluated after 13 days, 100=total damage, 0=no damage
Method in brief: (§2)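 In this pre-emergence test, pots of standard soil sown with seed are treated after one day of glasshouse cultivation using compound formulated in acetone/water (50:50) containing 0.5% Tween 20, dosed at 250 or 1000 g/ha. Growth continues at 24/16 °C day/night with 14 h light and 65% humidity, and damage is rated after 13 days.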

[8] = system: Alopecurus myosuroides (ALOMY); experiment: as above; details: Alopecurus myosuroides, 312 h, dose 1,000 g/ha, evaluated after 13 days, 100=total damage, 0=no damage
Method in brief: as §2

[9] = system: Echinochloa crus-galli (ECHCG); experiment: as above; details: Echinochloa crus-galli, 312 h, dose 1,000 g/ha, evaluated after 13 days, 100=total damage, 0=no damage
Method in brief: as §2

Setaria faberi (SETFA) [10] = experiment: as above; details: Setaria faberi, 312 h, dose 1,000 g/ha, evaluated after 13 days, 100=total damage, 0=no damage
Method in brief: as §2

Solanum nigrum (SOLNI) [11] = experiment: as above; details: Solanum nigrum, 312 h, dose 1,000 g/ha, evaluated after 13 days, 100=total damage, 0=no damage
Method in brief: as §2

[12] = system: Amaranthus retoflexus (AMARE); experiment: as above; details: Amaranthus retroflexus, 312 h, dose 1,000 g/ha, evaluated after 13 days, 100=total damage, 0=no damage
Method in brief: as §2

| Compound | pest or weed control at 1000 g/ha [1] | pest or weed control at 1000 g/ha [2] | pest or weed control at 1000 g/ha [3] | pest or weed control at 1000 g/ha (Setaria faberi (SETFA) [4]) | pest or weed control at 1000 g/ha (Solanum nigrum (SOLNI) [5]) | pest or weed control at 1000 g/ha [6] | pest or weed control at 1000 g/ha [7] | pest or weed control at 1000 g/ha [8] | pest or weed control at 1000 g/ha [9] | pest or weed control at 1000 g/ha (Setaria faberi (SETFA) [10]) | pest or weed control at 1000 g/ha (Solanum nigrum (SOLNI) [11]) | pest or weed control at 1000 g/ha [12] |
| --- | --- | --- | --- | --- | --- | --- | --- | --- | --- | --- | --- | --- |
| CC(O)c1c(N)nc(-c2ccc(C(F)(F)F)cc2)nc1CO (stereo not drawn) [Compound 31-372, 4-amino-5-(1-hydroxyethyl)-6-hydroxymethyl-2-(4-trifluoromethylphenyl)-pyrimidine] | 30% | 10% | 10% | 30% | 30% | 20% | 0% | 0% | 0% | 0% | 0% | 0% |
| C=Cc1c(N)nc(-c2ccc(Cl)c(N(C)C)c2F)nc1C(=O)O [Compound 33-21, 4-Amino-2-(4-chloro-3-dimethylamino-2-fluorophenyl)-5-ethenylpyrimidine-6-carboxylic acid] | 70% | 90% | 100% | 100% | 90% | 100% | 80% | 90% | 100% | 100% | 100% | 100% |
| COC(=O)c1nc(-c2ccc(Cl)c(N(C)C)c2F)nc(N)c1C [Compound 33-41] | 10% | 30% | 50% | 70% | 70% | 100% | 0% | 10% | 10% | 30% | 30% | 20% |
| COC(=O)c1nc(-c2ccc(Cl)c(N(C)C)c2F)nc(N)c1C(C)=O [Compound 33-53, 4-Amino-2-(4-chloro-3-dimethylamino-2-fluorophenyl)-6-methoxycarbonyl-5-methylcarbonyl-pyrimidine] | 40% | 10% | 20% | 20% | 50% | 100% | 0% | 0% | 0% | 0% | 0% | 0% |
| C=Cc1c(N)nc(-c2ccc(Cl)c(N(C)C)c2F)nc1C(=O)OC [Compound 33-61] | 90% | 20% | 20% | 30% | 80% | 70% | 40% | 0% | 0% | 10% | 30% | 50% |
| C=C(C)c1c(N)nc(-c2ccc(Cl)c(N(C)C)c2F)nc1C(=O)OC [Compound 33-64, 4-Amino-2-(4-chloro-3-dimethylamino-2-fluorophenyl)-6-methoxycarbonyl-5-(prop-1-en-2-yl)-pyrimidine] | 10% | 0% | 0% | 0% | 20% | 10% | 0% | 0% | 0% | 0% | 0% | 0% |
| C=C(OCC)c1c(N)nc(-c2ccc(Cl)c(N(C)C)c2F)nc1C(=O)OC [Compound 33-67, 4-Amino-2-(4-chloro-3-dimethylamino-2-fluorophenyl)-5-(1-ethoxyethenyl)-6-methoxycarbonyl-pyrimidine] | 20% | 0% | 0% | 0% | 40% | 10% | 10% | 0% | 0% | 0% | 0% | 0% |
| C=Cc1c(N)nc(-c2ccc(Cl)c(N(C)C)c2F)nc1C(=O)OCC [Compound 33-101, 4-amino-2-(4-chloro-3-dimethylamino-2-fluorophenyl)-5-ethenyl-6-ethoxycarbonyl-pyrimidine] | 60% | 80% | 90% | 80% | 90% | 100% | 30% | 60% | 90% | 90% | 90% | 100% |
| C=Cc1c(N)nc(-c2ccc(Cl)c(N(C)C)c2F)nc1C(=O)OC(C)C [Compound 33-306, 4-Amino-2-(4-chloro-3-dimethylamino-2-fluorophenyl)-5-ethenyl-6-isopropoxycarbon-yl-pyrimidine] | 30% | 40% | 70% | 70% | 100% | 100% | 0% | 20% | 20% | 20% | 80% | 40% |
| C=Cc1c(N)nc(-c2ccc(Cl)c(N(C)C)c2F)nc1C(=O)OCCC [Compound 33-316] | 40% | 70% | 100% | 90% | 90% | 100% | 10% | 60% | 90% | 70% | 80% | 90% |
| C=Cc1c(N)nc(-c2ccc(Cl)c(N(C)C)c2F)nc1C(=O)OCC(C)C [Compound 33-326, 4-Amino-2-(4-chloro-3-dimethylamino-2-fluorophenyl)-5-ethenyl-6-(2-methylpropoxy) carbonyl-pyrimidine] | 50% | 20% | 80% | 40% | 90% | 100% | 10% | 20% | 40% | 20% | 60% | 60% |
